From patent US7279500B2, “Sulfonamide cannabinoid agonists and antagonists” (Virginia Commonwealth University, priority 2002, dated 2007)
Where two headings read alike, the source gives them in different places.

Assays:
CB1 receptor [1] = target: T1, CB1 receptor (Rattus norvegicus, UniProt P20272); assay: GTPγS binding in rat brain membranes, compound alone (inverse agonism); type: biochemical; set-up: from tissue; host or cells: rat brain membranes; conditions: for GTPγS stimulation (1 μM): rat brain membranes
From the text: FIG. 2. Compound O-2050 lacks inverse agonism in GTPγS binding in rat brain membranes. X axis, concentration of O-2050 (M); Y axis, % stimulation of GTPγS binding.
In order to determine whether O-2050 had inverse agonist properties, the compound was examined alone in the GTPγS binding assay. […] The performance of O-2050 in this assay in comparison to two other compounds with unsaturated side chains and varying R groups (O-1991, R=ethyl, and O-1993, R=butyl) are given in Table 3.

CB1 receptor [2] = target: CB1 receptor (UniProt P21554); assay: CB1 receptor affinity assay; type: binding; conditions: for Kd: read-out: CB1KD
Method: (§1) Mouse Tetrad and CB1 and CB2 receptor Affinity. The mouse tetrad and CB1 and CB2 receptor affinity assays were carried out as previously described in Wiley, J. L., Beletskaya, I. D., Ng, E. W., Dai, Z., Crocker, P. J., Mahadevan, A, Razdan, R. K., Martin, B. R., Resorcinols derivatives: a novel template for the delevopment of cannabinoid CB1/CB2 and CB2-selective agonists. J. Pharmacol. Exp. Ther. 301: 679-689, 2002.
(§2) The incorporation of sulfonaminde moieties is known to impart antagonistic activity in some classes of compounds. There is precedent for sulfonamide derivatives to show potent antagonist activity in peptidoleukotrienes (see for example, Matassa et al., J. Med. Chem. 1990, 33, 2621-2629; Jacobs et al., J. Med. Chem. 1993, 36, 394-409). In the development of the present invention, a sulfonamide moiety, SO2R, in which the identity of R was varied, was incorporated into the terminal position of a tetrahydrocannabinol (THC) side chain, which was also varied (saturated or unsaturated) as described above. The resulting compounds were tested for CB1 and CB2 receptor binding affinity, and cannabinoid agonist and antagonist properties using the mouse tetrad test, as described in Materials and Methods.

CB2 receptor = CB2 receptor (Homo sapiens, UniProt P34972); assay: CB2 receptor affinity assay; type: binding
Method: as §1, §2

mice = assay: Mouse tetrad test (sedation, analgesia, hypothermia) following i.v. administration; type: in vivo; conditions: for ED50: iv
Method: as §1, §2
The compounds were tested for their CB1 and CB2 receptor binding ability, and their cannabinoid agonist and antagonist properties.

mouse vas deferens [3] = conditions: literature, Pertwee et al. 1996; cited from earlier work
CB1 receptor [4] = target: T2, CB1 receptor (Mus musculus, UniProt P47746); assay: Antagonism of WIN 55,212-2 inhibition of electrically induced contractions of mouse vas deferens; type: cell-based
T2 construct: O-2050 behaves as a CB1 receptor antagonist at naturally expressed CB1 receptors; from tissue; host or cells: mouse vas deferens
Method: FIG. 3. Compound O-2050 antagonism of WIN 55,212-2 in mouse vas deferens. X axis, concentration of WIN 55,212-2; Y axis, % inhibition of WIN 55,212-2 activity (mean % inhibition±standard error [s.e.] of the mean). Open circles=vehicle control (WIN 55212-2 added after pretreatment with dimethylsulfoxide (DMSO), the solvent in which the O-2050 was dissolved; open triangles: 1 nM O-2050 (WIN 55,212-2 added after pretreatment with 1 nM O-2050); filled circles: 10 nM O-2050 (WIN 55,212-2 added after pretreatment with 10 nM O-2050); filled triangles: 31.62 nM O-2050 (WIN 55,212-2 added after pretreatment with 31.62 nM O-2050); filled squares: 100 nM O-2050 (WIN 55,212-2 added after pretreatment with 100 nM O-2050.
These observations were extended by examining O-2050 in the mouse vas deferens, a smooth muscle preparation that is regulated by the cannabinoid system.

mouse vas deferens [5] = assay: Mouse vas deferens, compound alone (inverse agonism); type: cell-based; conditions: up to 1000 nM
From the text: FIG. 4. Compound O-2050 lacks inverse agonism in GTPγS binding in mouse vas deferens. Y axis, % enhancement±s.e. (standard error of the mean) of GTPγS binding in mouse vas deferens by O-2050 at the indicated concentrations.
In order to determine whether O-2050 has inverse agonist properties in the mouse vas deferens, the compound was examined alone in this tissue preparation. […] O-2050 therefore differs from the putative inverse agonist, SR141716A, which does enhance the amplitude of these contractions in this bioassay system (e.g. see Pertwee et al., 1996, Eur. J. Pharmacol. 315: 195-201). […] Therefore, O-2050 lacks inverse agonist properties in yet another system that is regulated by the cannabinoids.

CB1 receptor [6] = target: T1, CB1 receptor; assay: Block of CP 55,940-stimulated GTPγS binding in rat brain tissue; type: biochemical; set-up: from tissue; host or cells: rat brain tissue
Method: FIG. 1. Compound O-2050 blocks CP 55,940 stimulation of GTPγS binding. O-2050 was tested for its ability to block stimulation of GTPγS binding by CP 55,940. […], log concentration of O-2050; Y axis, % stimulation by CP 55,940.
The above properties of O-2050 are indicative of an antagonist. Therefore, the ability of O-2050 to block the agonist effects of CP 55,940, a highly efficacious cannabinoid, in the in vitro GTPγS binding assay in rat brain tissue was tested. The assay is an in vitro functional measure of CB1 receptor activation.

[7] = mouse tetrad, i.v. administration, read-out: Analgesia ED50
[8] = mouse tetrad, i.v. administration, read-out: Sedation ED50
[9] = mouse tetrad, i.v. administration, read-out: Temperature (hypothermia) ED50
[10] = mouse tetrad, i.v. administration

T1 sequence (P20272 whole entry): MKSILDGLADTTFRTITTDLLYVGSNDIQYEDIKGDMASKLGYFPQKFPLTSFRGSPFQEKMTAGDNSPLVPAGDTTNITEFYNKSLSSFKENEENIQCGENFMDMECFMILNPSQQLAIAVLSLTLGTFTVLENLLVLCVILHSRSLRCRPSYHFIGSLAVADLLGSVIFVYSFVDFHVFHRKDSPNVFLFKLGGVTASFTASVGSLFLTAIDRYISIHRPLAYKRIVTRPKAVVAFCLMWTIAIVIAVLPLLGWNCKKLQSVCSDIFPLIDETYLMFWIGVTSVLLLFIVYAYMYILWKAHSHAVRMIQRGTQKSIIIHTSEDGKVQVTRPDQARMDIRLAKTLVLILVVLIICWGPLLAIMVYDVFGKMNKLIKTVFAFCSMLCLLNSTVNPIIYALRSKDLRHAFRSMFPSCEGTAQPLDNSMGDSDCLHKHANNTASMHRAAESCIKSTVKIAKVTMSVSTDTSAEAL
Chain of CB2 receptor (P34972 whole entry): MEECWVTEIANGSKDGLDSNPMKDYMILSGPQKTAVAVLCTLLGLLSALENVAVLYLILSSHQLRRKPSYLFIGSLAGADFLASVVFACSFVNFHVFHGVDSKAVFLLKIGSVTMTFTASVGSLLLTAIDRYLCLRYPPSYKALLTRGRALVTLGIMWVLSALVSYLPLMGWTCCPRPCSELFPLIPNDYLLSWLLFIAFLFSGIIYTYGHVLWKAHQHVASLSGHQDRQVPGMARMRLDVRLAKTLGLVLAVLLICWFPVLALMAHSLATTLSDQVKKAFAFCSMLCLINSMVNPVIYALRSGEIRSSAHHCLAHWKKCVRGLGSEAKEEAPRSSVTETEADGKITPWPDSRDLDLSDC
T2 sequence (P47746 whole entry): as the sequence (P20272 whole entry) above, with E95D counted along it

Row | SMILES | GTPγS stimulation (1 μM) (CB1 receptor [1]) [%] | CB1 receptor affinity (in words) (CB1 receptor [2]) | Kd (CB1 receptor [2]) [nM] | CB2 receptor affinity (in words) (CB2 receptor) | Kd (CB2 receptor) [nM] | Agonist potency in mouse tetrad test (in words) (mice; i.v. administration) | ED50 (mice; [7]) [mg/kg] | ED50 (mice; [8]) [mg/kg] | ED50 (mice; [9]) [mg/kg] | Negative stimulation of GTPγS binding / agonist character (in words) (CB1 receptor [1]) | further results
1 | CCCCCc1cc(O)c2c(c1)OC(C)(C)[C@@H]1CCC(C)=C[C@@H]21 [THC, reference compound] | 15 |  |  |  |  |  |  |  |  |  | 
2 | CCCCS(=O)(=O)NCCCC#CCc1cc(O)c2c(c1)OC(C)(C)C1CC=C(C)CC21 (stereo not shown) [Compound O-1993] | 30 | moderate affinity | 70 ± 10 | only moderate affinity | 86 ± 7 | moderate to low pharmacological agonist potency | 14 | 7.6 | 12 | weak agonists | 
3 | Cc1c(C(=O)NN2CCCCC2)nn(-c2ccc(Cl)cc2Cl)c1-c1ccc(Cl)cc1 [SR141716A] |  |  |  |  |  |  |  |  |  |  | Enhancement of amplitude of electrically-evoked contractions (mouse vas deferens [3]): does enhance
4 | CCS(=O)(=O)NCCCC#CCc1cc(O)c2c(c1)OC(C)(C)C1CC=C(C)CC21 (stereo not shown) [Compound O-1991, 3-Norpentyl 3-(6-ethanesulfamidohex-2-yne-yl)-Δ^8-tetrahydrocannabinol] | 29 | moderate affinity | 20 ± 13 | high affinity | 1.4 ± 0.2 | moderate to low pharmacological agonist potency | 0.9 | 1.7 | 0.8 | weak agonists | 
5 | CC1=CCC2C(C1)c1c(O)cc(CC#CCCCNS(C)(=O)=O)cc1OC2(C)C (stereo not shown) [Compound O-2050, 3-Norpentyl-3-(6-methanesulfamidohex-2-yne-yl)-Δ^8-tetrahydrocannabinol] | 11 | high affinity | 2.5 ± 0.4 | high affinity | 0.2 ± 0.06 |  | > 30 | 4.3 | > 30 | failed to produce negative stimulation | Sedation (in words) (mice; mouse tetrad): only weakly active; Analgesia ED50 (mice; [10]): >30 mg/kg; Temperature (hypothermia) ED50 (mice; [10]): >30 mg/kg; Kb (CB1 receptor [4]): 1 nM; Dextral Shift of WIN 55,212-2 log concentration-response curve (CB1 receptor [4]; 1 nM O-2050): 2.8; Dextral Shift of WIN 55,212-2 log concentration-response curve (CB1 receptor [4]; 10 nM O-2050): 7.5; Dextral Shift of WIN 55,212-2 log concentration-response curve (CB1 receptor [4]; 20 nM O-2050): 15; Dextral Shift of WIN 55,212-2 log concentration-response curve (CB1 receptor [4]; 100 nM O-2050): 104; Enhancement of amplitude of electrically-evoked contractions (mouse vas deferens [5]): did not enhance; Kb (CB1 receptor [6]): 1 nM
6 | CC1=CCC2C(C1)c1c(O)cc(C(C)(C)CCCCNS(=O)(=O)c3ccccc3)cc1OC2(C)C (stereo not shown) [Compound O-2048, 1,1-Dimethyl-5-phenylsulfamido-Δ^8-tetrahydrocannabinol] |  | high affinity | 4.1 ± 0.4 | high affinity |  | potent cannabinoid agonists | 2.8 | 0.3 | 5.6 |  | 
7 | CCS(=O)(=O)NCCCCC(C)(C)c1cc(O)c2c(c1)OC(C)(C)C1CC=C(C)CC21 (stereo not shown) [Compound O-2113, 1,1-Dimethyl-5-ethanesulfamido-Δ^8-tetrahydrocannabinol] |  | high affinity | 1.7 ± 0.3 | high affinity |  | potent cannabinoid agonists | 0.3 | 0.4 | 1.4 |  | 
